The first assay concerns the target T1, human type 1 glycine transporter (GlyT1) (Homo sapiens, UniProt P48067).
T1 construct: T98G cells (glioma cells) expressing human type 1 glycine transporter (GlyT1) were used; endogenous in cells; host or cells: T98G cells (human glioma cells)
T1 sequence (P48067 1-706): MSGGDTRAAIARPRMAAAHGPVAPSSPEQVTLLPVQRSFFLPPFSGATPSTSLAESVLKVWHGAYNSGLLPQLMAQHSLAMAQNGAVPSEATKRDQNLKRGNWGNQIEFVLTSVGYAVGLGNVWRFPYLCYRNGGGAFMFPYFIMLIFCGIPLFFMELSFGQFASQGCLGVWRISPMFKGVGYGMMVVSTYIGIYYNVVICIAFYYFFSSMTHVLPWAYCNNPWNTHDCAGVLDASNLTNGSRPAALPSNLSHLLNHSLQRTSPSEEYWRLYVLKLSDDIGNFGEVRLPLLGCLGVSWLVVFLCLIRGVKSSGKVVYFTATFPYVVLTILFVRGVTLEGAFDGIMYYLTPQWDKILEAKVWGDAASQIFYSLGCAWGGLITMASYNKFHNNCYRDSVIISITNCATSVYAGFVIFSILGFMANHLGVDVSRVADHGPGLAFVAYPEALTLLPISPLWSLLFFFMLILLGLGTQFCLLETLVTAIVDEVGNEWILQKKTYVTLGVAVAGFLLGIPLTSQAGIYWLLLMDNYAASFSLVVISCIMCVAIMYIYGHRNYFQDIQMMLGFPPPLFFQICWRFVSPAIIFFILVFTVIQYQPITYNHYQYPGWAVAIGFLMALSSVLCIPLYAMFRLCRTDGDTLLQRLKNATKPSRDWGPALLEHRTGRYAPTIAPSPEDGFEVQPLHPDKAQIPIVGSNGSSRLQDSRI
Put plainly: Glycine uptake inhibition experiment ([3H] glycine uptake in T98G cells expressing GlyT1).
Conditions: not given
It counts as cell-based. Summed up:
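T98G glioma cells expressing human GlyT1 were pretreated 10 min with compound in HEPES buffer pH 7.4 (0.2% BSA), then incubated with compound plus 250 nM final [3H]glycine for 15 min at room temperature. Intracellular radioactivity was counted after NaOH lysis; 10 μM ALX5407 defined non-specific uptake. IC50 came from 10^−9–10^−5 M curves.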
Compound `COc1ccc(CN2C(=O)C(F)(F)c3c([C@H](C)O)cccc32)cn1` [Compound 203, 3,3-difluoro-4-[(1S)-1-hydroxyethyl]-1-[(6-methoxypyridin-3-yl)methyl]-1,3-dihydro-2H-indol-2-one] returned a half-maximal inhibitory concentration (IC50) of 31 nM.

`O=C1N(Cc2ccnc(C3CC3)c2)c2cccc(C(O)C(F)F)c2C1(F)F` (single isomer, unassigned) [Compound 180, 1-[(2-cyclopropylpyridin-4-yl)methyl]-4-(2,2-difluoro-1-hydroxyethyl)-3,3-difluoro-1,3-dihydro-2H-indol-2-one] yielded a half-maximal inhibitory concentration (IC50) of 53 nM. Same read-out and setting: then `N#Cc1cccc(CN2C(=O)C(F)(F)c3c(C(O)C(F)F)cccc32)n1` (single isomer, unassigned) [Compound 176, 6-{[4-(2,2-difluoro-1-hydroxyethyl)-3,3-difluoro-2-oxo-2,3-dihydro-1H-indol-1-yl]methyl}pyridine-2-carbonitrile], with 41 nM. Still for that read-out and setting: then `C[C@H](O)c1cccc2c1C(F)(F)C(=O)N2Cc1ncccc1C(F)(F)F` [Compound 227, 3,3-difluoro-4-[(1S)-1-hydroxyethyl]-1 {[3-(trifluoromethyl)pyridin-2-yl]methyl)-1,3-dihydro-2H-indol-2-one], with 380 nM. In turn, `CC(O)c1c(F)ccc2c1C(F)(F)C(=O)N2Cc1ccnc(C#N)c1` (single isomer, unassigned) [Compound 184, 4-{(3,3,5-trifluoro-4-(1-hydroxyethyl)-2-oxo-2,3-dihydro-1H-indol-1-yl]methyl}pyridine-2-carbonitrile] yielded a half-maximal inhibitory concentration (IC50) of 95 nM. This IC50 lies about 4-fold lower than the previous one. Still for that read-out and setting: then `Cn1c(=O)c(CN2C(=O)C(F)(F)c3c(C(O)C(F)F)cccc32)nc2ccccc21` (single isomer, unassigned) [Compound 167, 3-{[4-(2,2-difluoro-1-hydroxyethyl)-3,3-difluoro-2-oxo-2,3-dihydro-1H-indol-1-yl]methyl)-1-methylquinoxalin-2(1H)-one], with 62 nM; and `C[C@H](O)c1cccc2c1C(F)(F)C(=O)N2Cc1ncccc1Cl` [Compound 206, 1-[(3-chloropyridin-2-yl)methyl]-3,3-difluoro-4-[(1S)-1-hydroxyethyl]-1,3-dihydro-2H-indol-2-one], with 60 nM; and `COc1cc(CN2C(=O)C(F)(F)c3c([C@H](C)O)cccc32)cnc1F` [Compound 240, 3,3-difluoro-1-[(6-fluoro-6-methoxypyridin-3-yl)methyl]-4-[(1S)-1-hydroxyethyl]-1,3-dihydro-2H-indol-2-one], with 60 nM. Regarding `C[C@H](O)c1cccc2c1C(F)(F)C(=O)N2Cc1cccnc1Cl` [Compound 210, 1-[(2-chloropyridin-3-yl)methyl]-3,3-difluoro-4-[(1S)-1-hydroxyethyl]-1,3-dihydro-2H-indol-2-one], the half-maximal inhibitory concentration (IC50) was found to be 680 nM. Turning to `O=C1N(Cc2ccc(Cl)cn2)c2cccc(C(O)C(F)F)c2C1(F)F` (single isomer, unassigned) [Compound 162, 1-[(5-chloropyridin-2-yl)methyl]-4-(2,2-difluoro-1-hydroxyethyl)-3,3-difluoro-1,3-dihydro-2H-indol-2-one], the IC50 was determined as 220 nM. Still for that read-out and setting: next, `C[C@H](O)c1cccc2c1C(F)(F)C(=O)N2Cc1cnc(Cl)nc1` [Compound 214, 1-[(2-chloropyrimidin-5-yl)methyl]-3,3-difluoro-4-[(1S)-1-hydroxyethyl]-1,3-dihydro-2H-indol-2-one]: 140 nM. Still for that read-out and setting: then `N#Cc1nc(CN2C(=O)C(F)(F)c3c(C(O)C(F)F)cccc32)ccc1F` (single isomer, unassigned) [Compound 275, 6-{[4-(2,2-difluoro-1-hydroxyethyl)-3,3-difluoro-2-oxo-2,3-dihydro-1H-indol-1-yl]methyl}-3-fluoropyridine-2-carbonitrile], with 9.1 nM. Still for that read-out and setting: then `O=C1N(Cc2cncc(C(F)(F)F)c2)c2cccc(C(O)C(F)F)c2C1(F)F` (single isomer, unassigned) [Compound 186, 4-(2,2-difluoro-1-hydroxyethyl)-3,3-difluoro-1-{[5-(trifluoromethyl)pyridin-3-yl]methyl}-1,3-dihydro-2H-indol-2-one], with 64 nM; and `C[C@H](O)c1cccc2c1C(F)(F)C(=O)N2Cc1ncccc1C#N` [Compound 213, 2-({3,3-difluoro-4-[(S)-1-hydroxyethyl]-2-oxo-2,3-dihydro-1-indol-1-yl}methyl)pyridine-3-carbonitrile], with 40 nM; and `C[C@H](O)c1cccc2c1C(F)(F)C(=O)N2Cc1cc(Cl)c(F)cn1` [Compound 250], with 9.8 nM. For `O=C1N(Cc2cc(C(F)(F)F)ccn2)c2cccc(C(O)C(F)F)c2C1(F)F` (single isomer, unassigned) [Compound 159, 4-(2,2-difluoro-1-hydroxyethyl)-3,3-difluoro-1-{[4-(trifluoromethyl)pyridin-2-yl]methyl}-1,3-dihydro-2H-indol-2-one], the IC50 was 53 nM. Compared with the last compound, the IC50 is about 5.4-fold higher.

Still in this assay, the particulars now being: glycine uptake inhibition.
With `O=C1N(Cc2cc3ccccc3c(=O)[nH]2)c2cccc([C@@H](O)C(F)(F)F)c2C1(F)F` [Compound 138, 3-({3,3-difluoro-2-oxo-4-[(1R)-2,2,2-trifluoro-1-hydroxyethyl]-2,3-dihydro-1H-indol-1-yl}methyl) isoquinolin-1(2H)-one], the half-inhibitory concentration (IC50) came to 58 nM.

In turn, `C[C@H](O)c1cccc2c1C(F)(F)C(=O)N2Cc1ccc(C(F)F)nc1` [Compound 130, 1-{[6-(difluoromethyl)pyridin-3-yl]methyl}-3,3-difluoro-4-[(1S)-1-hydroxyethyl]-1,3-dihydro-2H-indol-2-one] registered an IC50 of 400 nM. With `N#Cc1cc(CN2C(=O)C(F)(F)c3c(C(O)C(F)(F)F)cccc32)ccn1` (single isomer, unassigned) [Compound 20, 4-{[3,3-difluoro-2-oxo-4-(2,2,2-trifluoro-1-hydroxyethyl)-2,3-dihydro-1H-indol-1-yl]methyl}pyridine-2-carbonitrile], the half-maximal inhibitory concentration (IC50) amounted to 2900 nM. In turn, `CC(O)c1cccc2c1C(F)(F)C(=O)N2Cc1cccc(Cl)n1` (single isomer, unassigned) [Compound 5, 1-[(6-chloropyridin-2-yl)methyl]-3,3-difluoro-4-(1-hydroxyethyl)-1,3-dihydro-2H-indol-2-one] had an IC50 of 300 nM. `N#Cc1cc(CN2C(=O)C(F)(F)c3c(C(O)C(F)F)cccc32)ccn1` (single isomer, unassigned) [Compound 110, 4-{[4-(2,2-difluoro-1-hydroxyethyl)-3,3-difluoro-2-oxo-2,3-dihydro-1H-indol-1-yl]methyl}pyridine-2-carbonitrile] had an IC50 of 2100 nM. The same measure, in the same setting: then `C[C@H](O)c1cccc2c1C(F)(F)C(=O)N2Cc1nc2cnccc2c(=O)n1C` [Compound 111, 2-({3,3-difluoro-4-[(1s)-1-hydroxyethyl]-2-oxo-2,3-dihydro-1H-indol-1-yl}methyl)-3-methylpyrido[3,4-d]pyrimidin-4(3H)-one], with 130 nM; and `O=C1N(Cc2cncc(Cl)c2)c2cccc(C(O)C(F)(F)F)c2C1(F)F` (single isomer, unassigned) [Compound 22, 1-[(5-chloropyridin-3-yl)methyl]-3,3-difluoro-4-(2,2,2-trifluoro-1-hydroxyethyl)-1,3-dihydro-2H-indol-2-one], with 1900 nM; and `C[C@H](O)c1cccc2c1C(F)(F)C(=O)N2Cc1ccc(C#N)cn1` [Compound 113, 6-({3,3-difluoro-4-[(1S)-1-hydroxyethyl]-2-oxo-2,3-dihydro-1H-indol-1-yl}methyl)pyridine-3-carbonitrile], with 940 nM. On the same count and under the same terms, next, `C[C@H](O)c1cccc2c1C(F)(F)C(=O)N2Cc1ccc2ccccc2n1` [Compound 77, 3,3-difluoro-4-[(1S)-1-hydroxyethyl]-1-(quinolin-2-ylmethyl)-1,3-dihydro-2H-indol-2-one]: 37 nM; `C[C@H](O)c1cccc2c1C(F)(F)C(=O)N2Cc1cnc2ccccc2c1` [Compound 74, 3,3-difluoro-4-[(1S)-1-hydroxyethyl)-1-(quinolin-3-ylmethyl)-1,3-dihydro-2H-indol-2-one]: 39 nM; `CC(O)c1cccc2c1C(F)(F)C(=O)N2Cc1cncc(Cl)c1` (single isomer, unassigned) [Compound 7, 1-[(5-chloropyridin-3-yl)methyl]-3,3-difluoro-4-(1-hydroxyethyl)-1,3-dihydro-2H-indol-2-one]: 14 nM.

Still in this assay, the particulars now being: table section whose head prints (μm).
As to `N#Cc1nccc(CN2C(=O)C(F)(F)c3c(C(O)C(F)F)cccc32)c1Cl` (single isomer, unassigned) [Compound 267], it took 260 nM to reach half-maximal inhibition (IC50). On the same count and under the same terms, next, `O=C1N(Cc2ccc(F)c(Cl)n2)c2cccc(C(O)C(F)F)c2C1(F)F` (single isomer, unassigned) [Compound 263, 1-[(6-chloro-5-fluoropyridin-2-yl)methyl]-4-(2,2-difluoro-1-hydroxyethyl)-3,3-difluoro-1,3-dihydro-2H-indol-2-one]: 11 nM.

Values taken from patent US20160159814A1, “GLYCINE TRANSPORTER INHIBITOR” (TAISHO PHARMACEUTICAL CO., LTD., priority 2013, published 2016).
